For 42 molecules, EC50 results are on record in patent US12655156B2, “Oxadiazolopyrazines and oxadiazolopyridines useful as mitochondrial uncouplers” (Virginia Tech Intellectual Properties, Inc., priority 2018, dated 2026).

Bounds are passed on as bounds.

The assay relates to whole cells (NMuLi, C2C12, and L6 cells, isolated cardiomyocytes, human primary fibroblasts). Description: Oxygen consumption rate (OCR) in whole cells, Seahorse XF-24 Flux Analyzer. Conditions: increase in OCR; binned EC50 values. The class given is cell-based. How it is done: Biological activities of the compounds synthesized is determined by determining increase in oxygen consumption rate (OCR).
Oxygen consumption rate (OCR) in whole cells is measured in general accordance with the method of Kenwood B M et al. (Mol. Met. (2014) 3:114-123).
OCR is measured using a Seahorse XF-24 Flux Analyzer (Seahorse Biosciences, North Billerica, MA). NMuLi, C2C12, and L6 cells are seeded in a Seahorse 24-well tissue culture plate at a density of 3.5×10^4 cells/well, isolated cardiomyocytes at a density of 4×10^4 cells/well, and human primary fibroblasts at a density of 1.1×10^4 cells/well. The cells are then allowed to adhere for 24 h. Prior to the assay, the media is changed to unbuffered DMEM containing pyruvate and glutamine (Gibco #12800-017, pH=7.4 at 37° C.) and the cells are equilibrated for 30 mins at 37°° C. Compounds are injected during the assay and OCR is measured using 2 min measurement periods.
2-3 wells are used per condition and averaged over three plates (n=6-9). Statistical significance is determined by two-way ANOVA with Bonferroni's posttest.
Activities are reported as binned EC50 values: A=5 μM or less; B=>5 to 20 μM; C=over 20 μM; NA=not active.
Broadly, the EC50 is the concentration at which the effect is half-maximal. Molecule `Oc1nc2nonc2nc1Nc1ccc(F)c(-c2ccc(C(F)(F)F)nc2)c1` [1-116, 6-((4-fluoro-3-(6-(trifluoromethyl)pyridin-3-yl)phenyl)amino)-[1,2,5]oxadiazolo[3,4-b]pyrazin-5-ol] gave a half-maximal effective concentration (EC50) of 5 to 20 µM. Then `Oc1nc2nonc2nc1Nc1ccc(-c2cc(F)cc(F)c2)cc1` [1-121, 6-((3′,5′-difluoro-[1,1′-biphenyl]-4-yl)amino)-[1,2,5]oxadiazolo[3,4-b]pyrazin-5-ol], with not above 5 µM. `Oc1nc2nonc2nc1Nc1ccc(-c2cccs2)cc1` [1-106, 6-((4-(thiophen-2-yl)phenyl)amino)-[1,2,5]oxadiazolo[3,4-b]pyrazin-5-ol] had a 50% effective concentration (EC50) of 5 to 20 µM. For the molecule `Oc1nc2nonc2nc1Nc1ccc(OC(F)(F)F)cc1F` [1-36, 6-((2-Fluoro-4-(trifluoromethoxy)phenyl)amino)-[1,2,5]oxadiazolo[3,4-b]pyrazin-5-ol], the EC50 is not above 5 µM. Then `N#Cc1cc(-c2ccc(Nc3nc4nonc4nc3O)cc2)ccc1F` [1-129, 4-fluoro-4′-((6-hydroxy-[1,2,5]oxadiazolo[3,4-b]pyrazin-5-yl)amino)-[1,1′-biphenyl]-3-carbonitrile], with 5 to 20 µM; and `Oc1nc2nonc2nc1Nc1cccc2ccccc12` [1-50, 6-(Naphthalen-1-ylamino)-[1,2,5]oxadiazolo[3,4-b]pyrazin-5-ol], with 5 to 20 µM. Then `Oc1nc2nonc2nc1Nc1ccc(-c2ccccc2)cc1` [1-103, 6-([1,1′-biphenyl]-4-ylamino)-[1,2,5]oxadiazolo[3,4-b]pyrazin-5-ol], with not above 5 µM; and `CCCCc1ccc(Nc2nc3nonc3nc2O)cc1` [1-54, 6-((4-Butylphenyl)amino)-[1,2,5]oxadiazolo[3,4-b]pyrazin-5-ol], with not above 5 µM; and `Oc1nc2nonc2nc1Nc1ccc(C(F)(F)F)cc1F` [1-16, 6-((2-Fluoro-4-(trifluoromethyl)phenyl)amino)-[1,2,5]oxadiazolo[3,4-b]pyrazin-5-ol], with not above 5 µM. In the case of `CCCCc1ccc(Nc2nc3nonc3nc2O)c(F)c1` [1-55, 6-((4-Butyl-2-fluorophenyl)amino)-[1,2,5]oxadiazolo[3,4-b]pyrazin-5-ol] it was not above 5 µM. For the molecule `Oc1nc2nonc2cc1Nc1cc(C(F)(F)F)cc(C(F)(F)F)c1` [1-243, 6-((3,5-bis(trifluoromethyl)phenyl)amino)-[1,2,5]oxadiazolo[3,4-b]pyridin-5-ol], the EC50 is not above 5 µM. Consider `Oc1nc2nonc2nc1Nc1ccc(OC(F)(F)F)cc1` [1-10, 6-((4-(Trifluoromethoxy)phenyl)amino)-[1,2,5]oxadiazolo[3,4-b]pyrazin-5-ol], for which the EC50 lay within 5 to 20 µM. As for `Oc1nc2nonc2nc1Nc1cccc(F)c1` [1-4, 6-((3-Fluorophenyl)amino)-[1,2,5]oxadiazolo[3,4-b]pyrazin-5-ol], the EC50 is more than 20 µM. In the case of `Cc1ccc(-c2cccc(Nc3nc4nonc4nc3O)c2)cc1` [1-132, 6-((4′-methyl-[1,1′-biphenyl]-3-yl)amino)-[1,2,5]oxadiazolo[3,4-b]pyrazin-5-ol] it was not above 5 µM; in that of `Oc1nc2nonc2nc1Nc1ccc(C2CCCCC2)cc1` [1-205, 6-((4-cyclohexylphenyl)amino)-[1,2,5]oxadiazolo[3,4-b]pyrazin-5-ol], not above 5 µM; in that of `CCc1cccc(Nc2nc3nonc3nc2O)c1` [1-46, 6-((3-Ethylphenyl)amino)-[1,2,5]oxadiazolo[3,4-b]pyrazin-5-ol], 5 to 20 µM. `O=[N+]([O-])c1cc(Nc2nc3nonc3nc2O)ccc1OC(F)(F)F` [1-40, 6-((3-Nitro-4-(trifluoromethoxy)phenyl)amino)-[1,2,5]oxadiazolo[3,4-b]pyrazin-5-ol]: the half-maximal effective concentration (EC50) was more than 20 µM.

Molecule `Oc1nc2nonc2cc1Nc1cccc(OC(F)(F)F)c1` [1-229, 6-((3-(trifluoromethoxy)phenyl)amino)-[1,2,5]oxadiazolo[3,4-b]pyridin-5-ol] came in with an EC50 of 5 to 20 µM.

As for `Oc1nc2nonc2cc1Nc1ccc(OC(F)(F)F)c(F)c1` [1-230, 6-((3-fluoro-4-(trifluoromethoxy)phenyl)amino)-[1,2,5]oxadiazolo[3,4-b]pyridin-5-ol], the half-maximal effective concentration (EC50) was more than 20 µM. Take `COc1cc(-c2ccc(Nc3nc4nonc4nc3O)cc2)ccc1F` [1-128, 6-((4′-fluoro-3′-methoxy-[1,1′-biphenyl]-4-yl)amino)-[1,2,5]oxadiazolo[3,4-b]pyrazin-5-ol]: the concentration for a half-maximal effect (EC50) was more than 20 µM.

For the molecule `Oc1nc2nonc2nc1Nc1cccc(-c2ccc(OC(F)F)cc2)c1` [1-113, 6-((4′-(difluoromethoxy)-[1,1′-biphenyl]-3-yl)amino)-[1,2,5]oxadiazolo[3,4-b]pyrazin-5-ol], the EC50 is not above 5 µM. Regarding `Cc1ccc(Nc2nc3nonc3nc2O)cc1C` [1-60, 6-((3,4-Dimethylphenyl)amino)-[1,2,5]oxadiazolo[3,4-b]pyrazin-5-ol], the EC50 fell in the range of 5 to 20 µM. As for `Oc1nc2nonc2nc1Nc1ccccc1F` [1-3, 6-((2-Fluorophenyl)amino)-[1,2,5]oxadiazolo[3,4-b]pyrazin-5-ol], the half-maximal effective concentration (EC50) was 5 to 20 µM. Then `Cc1ccc(C(F)(F)F)cc1Nc1nc2nonc2nc1O` [1-12, 6-((2-Methyl-5-(trifluoromethyl)phenyl)amino)-[1,2,5]oxadiazolo[3,4-b]pyrazin-5-ol], with 5 to 20 µM; and `Oc1nc2nonc2nc1Nc1ccc(C(F)(F)F)c(F)c1` [1-42, 6-((3-Fluoro-4-(trifluoromethyl)phenyl)amino)-[1,2,5]oxadiazolo[3,4-b]pyrazin-5-ol], with 5 to 20 µM; and `CCCCCCc1ccc(Nc2nc3nonc3nc2O)c(F)c1` [1-67, 6-((2-Fluoro-4-hexylphenyl)amino)-[1,2,5]oxadiazolo[3,4-b]pyrazin-5-ol], with not above 5 µM.

The molecule `Oc1nc2nonc2nc1Nc1cccc(-c2ccc(C(F)(F)F)nc2)c1` [1-115, 6-((3-(6-(trifluoromethyl)pyridin-3-yl)phenyl)amino)-[1,2,5]oxadiazolo[3,4-b]pyrazin-5-ol] displayed an EC50 of more than 20 µM. Then `CCCCCc1ccc(Nc2nc3nonc3nc2O)cc1` [1-71, 6-((4-pentylphenyl)amino)-[1,2,5]oxadiazolo[3,4-b]pyrazin-5-ol], with more than 20 µM. In the case of `Oc1nc2nonc2nc1Nc1cc(F)cc(F)c1` [1-15, 6-((3,5-Difluorophenyl)amino)-[1,2,5]oxadiazolo[3,4-b]pyrazin-5-ol] it was 5 to 20 µM; in that of `Oc1nc2nonc2nc1Nc1cccc(OC(F)(F)F)c1` [1-9, 6-((3-(Trifluoromethoxy)phenyl)amino)-[1,2,5]oxadiazolo[3,4-b]pyrazin-5-ol], not above 5 µM; in that of `CC(C)(C)c1ccc(Nc2nc3nonc3nc2O)cc1` [1-51, 6-((4-(tert-Butyl)phenyl)amino)-[1,2,5]oxadiazolo[3,4-b]pyrazin-5-ol], not above 5 µM. The molecule `Oc1nc2nonc2nc1Nc1ccc(OC(F)F)cc1` [1-27, 6-((4-(Difluoromethoxy)phenyl)amino)-[1,2,5]oxadiazolo[3,4-b]pyrazin-5-ol] came in with a concentration for a half-maximal effect (EC50) of more than 20 µM. In the case of `COc1nc2nonc2cc1Nc1ccc(-c2ccc(C(F)(F)F)nc2)cc1` [1-225, 5-methoxy-N-(4-(6-(trifluoromethyl)pyridin-3-yl)phenyl)-[1,2,5]oxadiazolo[3,4-b]pyridin-6-amine] it was more than 20 µM; in that of `Oc1nc2nonc2nc1Nc1cccc(-c2cc(F)cc(F)c2)c1` [1-119, 6-((3′,5′-difluoro-[1,1′-biphenyl]-3-yl)amino)-[1,2,5]oxadiazolo[3,4-b]pyrazin-5-ol], not above 5 µM. Regarding `Oc1nc2nonc2cc1Nc1ccc(OC(F)(F)F)cc1F` [1-251, 6-((2-fluoro-4-(trifluoromethoxy)phenyl)amino)-[1,2,5]oxadiazolo[3,4-b]pyridin-5-ol], the EC50 was not above 5 µM. The molecule `Oc1nc2nonc2nc1Nc1cccc(-c2ccc(Cl)cc2)c1` [1-133, 6-((4′-chloro-[1,1′-biphenyl]-3-yl)amino)-[1,2,5]oxadiazolo[3,4-b]pyrazin-5-ol] displayed an EC50 not above 5 µM. Then `Oc1nc2nonc2nc1Nc1cccc(-c2ccc(C(F)(F)F)cc2)c1` [1-131, 6-((4′-(trifluoromethyl)-[1,1′-biphenyl]-3-yl)amino)-[1,2,5]oxadiazolo[3,4-b]pyrazin-5-ol], with not above 5 µM.

`Cc1cccc(C)c1Nc1nc2nonc2nc1O` [1-56, 6-((2,6-Dimethylphenyl)amino)-[1,2,5]oxadiazolo[3,4-b]pyrazin-5-ol] displayed a concentration for a half-maximal effect (EC50) not above 5 µM. `Oc1nc2nonc2nc1Nc1ccc(-c2ccc(C(F)(F)F)cc2)cc1` [1-130, 6-((4′-(trifluoromethyl)-[1,1′-biphenyl]-4-yl)amino)-[1,2,5]oxadiazolo[3,4-b]pyrazin-5-ol] yielded a concentration giving a half-maximal response (EC50) of 5 to 20 µM.

As to `CC(=O)c1ccc(Nc2nc3nonc3nc2O)cc1` [1-47, 1-(4-((6-Hydroxy-[1,2,5]oxadiazolo[3,4-b]pyrazin-5-yl)amino)phenyl)ethan-1-one], the EC50 is more than 20 µM. Then `Oc1nc2nonc2cc1Nc1cccc(F)c1F` [1-250, 6-((2,3-difluorophenyl)amino)-[1,2,5]oxadiazolo[3,4-b]pyridin-5-ol], with not above 5 µM; and `Oc1nc2nonc2nc1Nc1cccc(-c2ccc3c(c2)OC(F)(F)O3)c1` [1-126, 6-((3-(2,2-difluorobenzo[d][1,3]dioxol-5-yl)phenyl)amino)-[1,2,5]oxadiazolo[3,4-b]pyrazin-5-ol], with not above 5 µM.
